We go through 26 compounds from PubChem BioAssay (NCI).

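Each compound was tested at five concentrations against cells in 96-well plates for 48 hours. Abbreviation: GI50, concentration required for 50% inhibition of growth. TGI marks complete inhibition of growth.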

What all share (test): NCI-60 cell line screen, 48 h
Experiment [1] deals with KM12 colon.
Experiment [2] relates to TK-10 renal.
Experiment [3] has as its system SK-OV-3 ovarian.
For experiment [4], the system named is HCC-2998 colon.
Experiment [5] deals with CAKI-1 renal.
Experiment [6] deals with SN12C renal.
The subject of experiment [7] is HOP-62 NSCLC.
The test system of experiment [8] is RXF 393 renal.
For experiment [9], the system named is NCI-H23 lung.
In experiment [10] the test system is HOP-92 NSCLC.

As for `O=c1c2ccccc2sc2cccc(NCCCN3CCN(CCCNc4cccc5sc6ccccc6c(=O)c45)CC3)c12`, the TGI in [1], in [2], in experiment [3], in experiment [4], in experiment [5] and in experiment [6] was more than 100 µM in each case. The TGI in experiment [7], in experiment [8] and in experiment [9] was more than 100 µM in each case.
On to `O=C(O)CSc1n[nH]c(-c2ccccc2)n1`, for which the TGI in experiment [1], in [2], in experiment [3], in experiment [4], in experiment [5] and in [6] was more than 100 µM throughout. The TGI in [7], in experiment [8] and in experiment [9] was more than 100 µM in each case.
For `O=c1[nH]cc(COCCO)c(=O)[nH]1`, the TGI in [1], in experiment [2], in [3], in [10], in experiment [5] and in experiment [6] was more than 100 µM in each case. For the same compound, the TGI in experiment [7], in [8] and in experiment [9] was more than 100 µM throughout.
As for `CC(CC(=O)O)C(C(=O)O)C(=O)O` (configuration not stated), the TGI in experiment [1], in [2], in experiment [3], in experiment [10], in [5] and in [6] was more than 100 µM in each case. Moreover, the TGI in [7], in experiment [8] and in [9] was more than 100 µM in each case.
Take `O=C(Nc1cc(Cl)ccc1Cl)c1cc2cccc(Cl)c2oc1=O`: the TGI in experiment [1], in [2], in [3], in experiment [6], in experiment [7] and in experiment [8] was more than 100 µM throughout. The compound further had a TGI in experiment [9] of more than 100 µM.
Regarding `COc1ccccc1N1CCN(CCCn2c(=O)c3c(OC)nc(C)cc3c(=O)n2-c2ccccc2)CC1`, the GI50 in experiment [1], in experiment [2], in experiment [3], in experiment [10], in experiment [4] and in [5] was more than 100 µM each time. The GI50 in [6], in [7] and in [9] was more than 100 µM throughout. Also, the TGI in experiment [1], in experiment [2], in experiment [3], in [10], in experiment [4] and in [5] was more than 100 µM each time. Also, the TGI in experiment [6], in experiment [7] and in experiment [9] was more than 100 µM each time.
As for `O=C(CSc1nnc(-c2ccc(N=Cc3ccc(Cl)cc3)cc2)o1)Nc1ccc(Cl)cc1`, the TGI in [1], in [2], in experiment [3], in [6], in experiment [7] and in [8] was more than 100 µM each time. In [9], the TGI was more than 100 µM.
In the case of `CC(=O)n1c2c(c(=O)n1-c1ccccc1)S(=O)CCC2` (configuration not stated), the TGI in experiment [1], in experiment [2], in experiment [3], in experiment [4], in experiment [5] and in experiment [6] was more than 100 µM in each case. Further, the TGI in [7] is 28.2 µM; in experiment [8] it was more than 68.4 µM; in [9], more than 100 µM.
Take `CCc1c(OC(C)=O)c2c(NC3OC(COC(C)=O)C(OC(C)=O)C(OC(C)=O)C3OC(C)=O)nc(OC)nc2oc1=O` (configuration not stated): the TGI in [1], in experiment [2], in experiment [3], in experiment [4], in experiment [5] and in [6] was more than 100 µM in each case. Further, the TGI in experiment [7], in experiment [8] and in [9] was more than 100 µM each time.
As for `Cc1cn2c(/C=C3\C(=O)Nc4ccc(O)cc43)c(-c3ccc(Cl)cc3)nc2s1`, the GI50 in experiment [1] is 45.4 µM; in experiment [2], 18.7 µM; in experiment [3] it was 25.9 µM; in experiment [5], 33.4 µM; in experiment [6] it was 10.4 µM; in [7], 15.3 µM. Moreover, the GI50 in [9] is 15.8 µM. Moreover, the TGI in experiment [1] is more than 100 µM; in experiment [2], 52.2 µM; in experiment [3] it was 62.7 µM; in [5] it was 72.8 µM; in experiment [6] it was 25.5 µM; in experiment [7] it was 30.3 µM. The same compound gave a TGI in experiment [9] of 35.8 µM.
For `O=C1NC(=S)NNC12c1ccccc1-c1ccccc12`, the TGI in [1], in [2], in experiment [3], in experiment [10], in [4] and in experiment [5] was more than 10 µM each time. In addition, the TGI in [6], in experiment [7] and in experiment [9] was more than 10 µM throughout.
As for `CCOc1ccc2c(c1)[n+]([O-])c(-c1ccccc1Cl)c(N)[n+]2[O-]`, the TGI in experiment [1], in experiment [3], in experiment [10], in experiment [5], in experiment [6] and in experiment [7] was more than 100 µM each time. The TGI in [8] and in experiment [9] was more than 100 µM in each case.
For `CCC1C2C=CC(CC2)N1S(=O)(=O)c1ccc(C)cc1` (configuration not stated), the TGI in experiment [1] is more than 100 µM; in experiment [3], 89.6 µM; in [5], more than 100 µM; in [6], 36.6 µM; in experiment [7] it was 76.3 µM.
Take `O=C(N/N=C1/C(=O)N(c2ccc(Cl)cc2Cl)C(=O)C(=O)C1c1nc2ccccc2o1)c1ccccc1O` (configuration not stated): the TGI is more than 100 µM in experiment [1]; more than 100 µM in [2]; more than 100 µM in [3]; 93.5 µM in [10]; more than 100 µM in experiment [5]; more than 100 µM in [6]. The TGI in [7] amounted to 75.2 µM; in experiment [9], 84.3 µM.
As for `c1ccc(SC2CCSc3ccccc3C2Sc2ccccc2)cc1` (configuration not stated), the TGI was more than 100 µM in experiment [1]; more than 100 µM in experiment [2]; more than 100 µM in experiment [10]; more than 100 µM in experiment [4]; 85 µM in [5]; more than 100 µM in experiment [6]. The TGI in [7] is more than 100 µM.
Turning to `COc1ccc2[nH]cc(-c3nc(-c4c[nH]c5ncccc45)cs3)c2c1`, the GI50 was 3.56 µM in experiment [1]; 5.47 µM in [2]; 4.41 µM in experiment [3]; 2.13 µM in [10]; 67.3 µM in experiment [4]; 2.05 µM in experiment [5]. In addition, the GI50 is 4.96 µM in experiment [6], 5.23 µM in [7] and 4.38 µM in experiment [9]. Besides, the TGI in experiment [1] is more than 100 µM; in experiment [2] it was more than 100 µM; in [3] it was more than 100 µM; in [10] it was 8.12 µM; in [4] it was more than 100 µM; in experiment [5] it was more than 100 µM. For the same compound, the TGI in experiment [6], in [7] and in experiment [9] was more than 100 µM throughout.
As for `CC1=C2CCCC2=C/C(=N/Nc2ccc([N+](=O)[O-])cc2[N+](=O)[O-])CC1`, the TGI in experiment [1], in experiment [2], in experiment [3], in experiment [10], in [5] and in experiment [6] was more than 100 µM in each case. The TGI in experiment [7], in [8] and in [9] was more than 100 µM throughout.
On to `O=c1n(-c2ccccc2)c(=O)n2n1C1C=CC2C2C(C1)C2(Cl)Cl` (configuration not stated), for which the TGI in experiment [1], in experiment [2], in experiment [3], in [4], in experiment [5] and in experiment [6] was more than 100 µM in each case. For the same compound, the TGI in experiment [7] and in [8] was more than 100 µM in each case.
Take `CCOC(=O)C(C)(C)Oc1ccc2c(C)c(-c3ccc(Cl)cc3)c(=O)oc2c1`: the TGI in experiment [2], in [4], in [6], in experiment [7], in [8] and in experiment [9] was more than 100 µM in each case.
As for `O=C1CC(C[C@H](O)C2CCCCC2O)CC(=O)N1Cc1ccccc1` (some centres not stated), the TGI in experiment [1], in experiment [2], in [3], in experiment [4], in experiment [5] and in [6] was more than 100 µM in each case. Moreover, the TGI in [7], in experiment [8] and in [9] was more than 100 µM each time.
As to `CCOc1ccc(N2C(=O)/C(=C/c3ccc(N(CCC#N)CCC#N)cc3)N=C2c2cc([N+](=O)[O-])ccc2Cl)cc1`, the TGI was 55.3 µM in experiment [1]; more than 100 µM in experiment [2]; more than 100 µM in experiment [3]; more than 100 µM in experiment [4]; 87.1 µM in experiment [5]; more than 100 µM in experiment [6]. Also, the TGI in experiment [7], in experiment [8] and in experiment [9] was more than 100 µM in each case.
As for `COc1ccc(-c2cc(-c3ccccc3)c(C#N)c(=O)n2C2OC(CO)C(O)C(O)C2O)cc1` (configuration not stated), the TGI in experiment [1], in experiment [2], in [3], in experiment [4], in [6] and in experiment [7] was more than 100 µM each time. For the same compound, the TGI in experiment [8] and in experiment [9] was more than 100 µM throughout.
Consider `C[C@H]1NC(=O)C2CCCCN2C(=O)CN(C)C(=O)CNC(=O)C2CCCCN2C(=O)[C@@H](NC(=O)c2nc3ccccc3cc2O)[C@@H](C)NC(=O)C2CCCCN2C(=O)CN(C)C(=O)CNC(=O)[C@@H]2CCCCN2C(=O)C1NC(=O)c1nc2ccccc2cc1O` (some centres not stated), for which the TGI in experiment [1] is 18.7 µM; in experiment [2] it was more than 100 µM; in experiment [3], more than 100 µM; in experiment [4] it was 0.479 µM; in [5] it was 0.768 µM; in experiment [6], more than 100 µM. In addition, the TGI in experiment [7] stood at 0.66 µM; in experiment [8], 0.199 µM; in [9] it was 0.69 µM.
Consider `CCCn1c(N)c(C(=O)N/N=C(/C)c2cc3cccc(OC)c3o2)sc1=S`, for which the GI50 in experiment [1] was 22.2 µM; in experiment [2] it was 28.8 µM; in experiment [3] it was 65.4 µM; in [10] it was 27.4 µM; in experiment [5], 0.0161 µM; in experiment [6], 45 µM. Besides, the GI50 in [7] was 11.8 µM; in experiment [8], 24.1 µM; in experiment [9], 41.1 µM. In addition, the TGI in experiment [1] was more than 100 µM; in experiment [2] it was more than 100 µM; in [3], more than 100 µM; in experiment [10], 78.8 µM; in [5], more than 100 µM; in experiment [6] it was more than 100 µM. In addition, the TGI was 30 µM in experiment [7], more than 100 µM in experiment [8] and more than 100 µM in [9].
Consider `O=c1cc2oc3cc(O)c(O)cc3c(-c3ccccc3O)c-2cc1O`, for which the GI50 in experiment [1] was 30.7 µM; in [2], 21.9 µM; in [3], 7.65 µM; in [10], 30.3 µM; in [5] it was 3.04 µM; in experiment [6] it was 10.7 µM. The GI50 in experiment [7] is 5.62 µM; in [8], 6.5 µM; in experiment [9], 3.88 µM. In addition, the TGI was more than 100 µM in experiment [1]; more than 100 µM in experiment [2]; more than 100 µM in experiment [3]; more than 100 µM in experiment [10]; 11.1 µM in [5]; more than 100 µM in [6]. The TGI in experiment [7] was more than 100 µM; in experiment [8] it was more than 100 µM; in experiment [9] it was 39.1 µM.
`COc1c(OC)c(OC)c(C(=O)/C=C/c2ccccc2)c(OC)c1OC`: the TGI was determined as 16.8 µM in [1]; 26.4 µM in experiment [2]; 32.9 µM in experiment [3]; 17.9 µM in [10]; 29.7 µM in experiment [4]; 28.4 µM in experiment [5]. In addition, the TGI in experiment [6] was 26.9 µM; in experiment [9], 26.8 µM.
